Test results as given in paper PMC3025922 (BMC Biology, 2010).
Several values for one entry are separate records, joined by “and”; a condition that tells them apart may be missing. Equal values may be shown once. Read-outs that look alike come from different tables or passages of the source. Residues, ends and D or L forms follow the SMILES beside them. *: point of attachment. Cbz = O=C(OCc1ccccc1)*

Assays:
[1] = MTT cytotoxicity assay, IMR90; format: cell-based; details: human, IMR90, 0.01 - 40 μM, 72 h
Method: (§3) LNCaP-S14 (10,000 cells), PC3, DU145 or IMR90 cells (5000 cells) were seeded in 96-well plates and treated with increasing concentrations of the respective SMIPs for 72 h. Cell viability was assessed using the MTT cell proliferation assay (ATCC®, Middlesex, UK) according to the manufacturer's protocol. IC50 was calculated using the BioDataFit 1.02 software http://www.changbioscience.com/stat/ec50.html.

[2] = tested on: p27 protein levels in LNCaP-S14 cells; assay: Immunoblot quantification of p27, LNCaP-S14; format: cell-based, human
Method: (§1) Total cell lysate from cells treated with vehicle (DMSO) or compounds were obtained by incubating cells in lysis buffer (25 mM Tris-HCl pH 7.4, 150 mM NaCl, 0.5% Triton X-100, protease inhibitors) for 15 min at 4°C. The supernatant was collected by centrifugation and the amount of protein was determined with a Bio-Rad protein assay (Bio-Rad) using BSA as standard. Equal amounts of protein were subjected to SDS-PAGE (4%-20% gels, Invitrogen) and transferred to PVDF membranes. The membranes were blocked with TBST (50 mM Tris-HCl pH 7.5, 150 mM NaCl, 0.05% Tween-20) containing 5% non-fat dry milk or bovine serum albumin (BSA) for 1 h at room temperature, followed by incubation in primary antibodies 4°C overnight. Membranes were washed and incubated with secondary antibodies conjugated to HRP (Jackson ImmunoResearch Laboratories) for 1 h at room temperature. Signals were visualized using the ECL Western Blotting Substrate (Pierce Biotechnology, IL, USA) according to the manufacturer's instructions. Membranes were stripped using Restore™ Western Blot Stripping Buffer (Pierce Biotechnology). Films were scanned and quantification of the bands was performed using Image J software http://rsbweb.nih.gov/ij/.

[3] = tested on: p27 protein levels in LNCaP cells; assay: Immunoblot quantification of p27, LNCaP; format: cell-based, human
Method: as §1

[4] = tested on: p21 protein levels in LNCaP cells; assay: Immunoblot quantification of p21, LNCaP; format: cell-based, human
Method: as §1

[5] = tested on: p27 protein levels in PC3 cells; assay: Immunoblot quantification of p27, PC3; format: cell-based, human
Method: as §1

[6] = tested on: p21 protein levels in PC3 cells; assay: Immunoblot quantification of p21, PC3; format: cell-based, human
Method: as §1

[7] = tested on: p27 protein levels in DU145 cells; assay: Immunoblot quantification of p27, DU145; format: cell-based, human
Method: as §1

[8] = tested on: p21 protein levels in DU145 cells; assay: Immunoblot quantification of p21, DU145; format: cell-based, human
Method: as §1

[9] = tested on: p27 protein levels in HeLa cells; assay: Immunoblot quantification of p27, HeLa; format: cell-based, human
Method: as §1

[10] = tested on: p21 protein levels in HeLa cells; assay: Immunoblot quantification of p21, HeLa; format: cell-based, human
Method: as §1

[11] = tested on: p27 protein levels in IMR90 cells; assay: Immunoblot quantification of p27, IMR90; format: cell-based, human
Method: as §1

[12] = tested on: polyubiquitylated proteins in LNCaP-S14 cells; assay: Anti-ubiquitin immunoblot of total lysate; format: cell-based, human; details: LNCaP-S14, SMIPs 20 and 40 μM, MG132 20 μM, bortezomib 100 nM, 24 h
Method: as §1

LNCaP-S14 cells [13] = assay: MTT cytotoxicity assay, LNCaP-S14; details: Homo sapiens, 72 h, read-out: IC50 (MTT cytotoxicity)
Method: as §3

LNCaP cells = assay: Cell cycle analysis by flow cytometry, LNCaP; format: cell-based, human
Method: (§2) Cells were exposed to SMIPs (40 μM) for 24 h and 48 h. Cells were trypsinized, washed with PBS and suspended in 600 μL PBS. Cells were fixed by adding 1.4 mL cold absolute ethanol and kept at -20°C for at least 12 h. After washing once with PBS, the cells were resuspended in 250 μL PBS containing 2.5 μg RNAse A and incubated for 45 min at room temperature. Staining was done by adding 40 μg/mL of propidium iodine followed by incubation for 15 min at room temperature. DNA-bound fluorescence was read at 564 to 606 nm using FACSort and FACSCanto flow cytometers (BD Biosciences) at the Flow Cytometry Facility of the Sanford-Burnham Medical Research Institute. Distribution of cells in the different cell cycle phase was determined with ModFit LT 3.2.1 or FlowJo 8.6 software. Aggregates were excluded from the analysis manually using pulse shape or identified by automated modelling in ModFit LT.

LNCaP-S14 cells [14] = assay: Cell cycle analysis by flow cytometry, LNCaP-S14; format: cell-based, human
Method: as §2

DU145 cells [15] = assay: Cell cycle analysis by flow cytometry, DU145; format: cell-based, human
Method: as §2

PC3 cells [16] = assay: Cell cycle analysis by flow cytometry, PC3; format: cell-based, human
Method: as §2

IMR90 cells = assay: Cell cycle analysis by flow cytometry, IMR90; format: cell-based, human
Method: as §2

LNCaP-S14 cells [17] = assay: Cell cycle distribution in LNCaP-S14 transfected with siRNAs for p27 and p21; format: cell-based, human
Method: as §2
LNCaP-S14 cells were seeded in 6 cm dishes or six-well-plates coated with poly-lysine the day before transfection. 10-20 nM of siRNA was transfected using DharmaFECT 3 (Thermo Scientific) according to the manufacturer's instructions. Briefly, siRNAs were dissolved in siRNA suspension buffer (Quiagen) at 20 μM, heated to 90°C for 1 min and incubated at 37°C for 1 h. siRNAs were added to the DharmaFECT 3 reagent diluted in Optimem media (1:100) and incubated for 20 min at room temperature. The mix was added to the cells for 24 h. Treatment with SMIPs (40 μM) or vehicle was carried on for another 24 h. Cells were obtained for FACS or lysed for immunoblotting analysis as described above. Untransfected cells as well as cells transfected with non-specific siRNA were used as controls. Silencer® Negative Control siRNA No.1 from Ambion (Applied Biosciences, CA, USA) was used as non-specific control siRNA. siRNA target sequences for p27 and p21 synthesized by IDT (Integrated DNA Technologies Inc, Iowa, USA) were as follows; p27 siRNA: […], and p21 siRNA: […] [56].

[18] = tested on: p21 protein levels in LNCaP-S14 cells; assay: Immunoblot quantification of p21, LNCaP-S14; format: cell-based, human
Method: as §1

[19] = tested on: p21 protein levels in IMR90 cells; assay: Immunoblot quantification of p21, IMR90; format: cell-based, human
Method: as §1

[20] = tested on: p27 stability in LNCaP-S14 cells; assay: Protein half-life by cycloheximide chase; format: cell-based, human; details: human
Method: LNCaP-S14 cells were treated with SMIPs (40 μM) for 18 h followed by the addition of 100 μg/mL cycloheximide (CHX). Cell extracts were obtained as described above at different times after CHX addition. Protein lysate was subjected to SDS-PAGE and immunoblotting for p27, p21 and SKP2. Tubulin was used as loading control. Protein half-lives were calculated using a web based calculator http://www.1728.com/halflife.htm.

LNCaP-S14 cells [21] = assay: Cell Death Detection ELISA (cytoplasmic histone-associated DNA fragments); format: cell-based, human
Method: Apoptosis was measured using the Cell Death Detection ELISA (Roche, Basel, Switzerland) following the manufacturer's instructions. Briefly, LNCaP-S14 cells (0.1 × 10^6) were seeded in 12-well plates and treated with SMIPs (40 μM) for 24 h. Cells were collected in medium, spun at 1000 rpm, and resuspended in 1 mL PBS at the specified time points (day 1 to day 3). The cell suspension was divided into two parts. The first half was used for determination of cytoplasmic histone-associated DNA fragments (ELISA), the second for protein determination to normalize the ELISA data to the amount of input protein.

[22] = tested on: SKP2 levels in LNCaP-S14 cells; format: cell-based, human
PC3 cells [23] = assay: MTT cytotoxicity assay, PC3; details: Homo sapiens, read-out: IC50 (MTT cytotoxicity)
Method: as §3

DU145 cells [24] = assay: MTT cytotoxicity assay, DU145; details: Homo sapiens, read-out: IC50 (MTT cytotoxicity)
Method: as §3

LNCaP-WT cells = assay: MTT cytotoxicity assay, LNCaP-WT; details: Homo sapiens, read-out: IC50 (MTT cytotoxicity)
Method: as §3

[25] = PC3, 24 h, SMIPs 40 μM, MG132 20 μM, bortezomib 100 nM
[26] = DU145, 24 h, SMIPs 40 μM, MG132 20 μM, bortezomib 100 nM
[27] = HeLa, 24 h, SMIPs 40 μM, MG132 20 μM, bortezomib 100 nM

CC(C)C[C@@H](C=O)NC(=O)[C@H](CC(C)C)NC(=O)[C@H](CC(C)C)NC(=O)OCc1ccccc1 [MG132, reference compound] (Cbz-Leu-Leu-Leu-aldehyde)
IC50 [1]: 445 nM
p27 protein level (immunoblot, DMSO = 1.0) ([2]; LNCaP-S14, 24 h, SMIPs 40 μM, MG132 20 μM, bortezomib 100 nM): 1.5
p27 protein level (immunoblot, DMSO = 1.0) ([3]; LNCaP, 24 h, SMIPs 40 μM, MG132 20 μM, bortezomib 100 nM): 1.9 ± 0.1
p21 protein level (immunoblot, DMSO = 1.0) ([4]; LNCaP, 24 h, SMIPs 40 μM, MG132 20 μM): 2.9
p27 protein level (immunoblot, DMSO = 1.0) [5, 25]: 2.0 ± 1.0
p21 protein level (immunoblot, DMSO = 1.0) [6, 25]: 4.1 ± 0.4
p27 protein level (immunoblot, DMSO = 1.0) [7, 26]: 2.4 ± 0.1
p21 protein level (immunoblot, DMSO = 1.0) [8, 26]: 3.1
p27 protein level (immunoblot, DMSO = 1.0) [9, 27]: 2.2 ± 0.9
p21 protein level (immunoblot, DMSO = 1.0) [10, 27]: 5.9 ± 1.7
p27 protein level (immunoblot, DMSO = 1.0) ([11]; IMR90, 24 h, SMIPs 40 μM, MG132 20 μM, bortezomib 100 nM): 0.9 ± 0.5
accumulation of polyubiquitylated proteins [12]: readily seen
IC50 (LNCaP-S14 cells [13]): 379 nM

CCCCc1ccc(NC(C)=O)c(C)c1 [SMIP004]
Cell cycle distribution G1 (LNCaP cells): 81.7 and 87.3
Cell cycle distribution G2 (LNCaP cells): 9.8 and 6.6
Cell cycle distribution G1 (LNCaP-S14 cells [14]): 72.3 and 75.8
Cell cycle distribution G2 (LNCaP-S14 cells [14]): 7.1 and 6.4
Cell cycle distribution S (LNCaP-S14 cells [14]): 19.1 and 14.7
Cell cycle distribution G1 (DU145 cells [15]): 75.7 and 79.7
Cell cycle distribution G2 (DU145 cells [15]): 8.0 and 10.4
Cell cycle distribution S (DU145 cells [15]): 14.1 and 9.0
Cell cycle distribution G1 (PC3 cells [16]): 58.5 and 65.8
Cell cycle distribution G2 (PC3 cells [16]): 25.7 and 24.3
Cell cycle distribution S (PC3 cells [16]): 14.3 and 8.5
Cell cycle distribution G1 (IMR90 cells): 68.6 and 77.6
Cell cycle distribution G2 (IMR90 cells): 13.2 and 10.9
Cell cycle distribution S (IMR90 cells): 18.2 and 11.5
% G1 (LNCaP-S14 cells [17]): 66.92% and 62.86% and 69.79% and 66.56%
% G2 (LNCaP-S14 cells [17]): 13.34% and 17.13% and 13.32% and 15.94%
% S (LNCaP-S14 cells [17]): 19.75% and 20.02% and 16.90% and 17.50%
p27 accumulation by immunoblotting [2]: ~ threefold
p27 protein level (immunoblot, DMSO = 1.0) [2]: 2.4 ± 0.7
p21 protein level (immunoblot, DMSO = 1.0) [18]: 2.8 ± 0.7
p27 protein level (immunoblot, DMSO = 1.0) [3]: 2.1 ± 1.1
p21 protein level (immunoblot, DMSO = 1.0) [4]: 2.7 ± 0.1
p27 protein level (immunoblot, DMSO = 1.0) [5]: 1.1 ± 0.3
p21 protein level (immunoblot, DMSO = 1.0) [6]: 1.7 ± 0.9
p27 protein level (immunoblot, DMSO = 1.0) [7]: 1.3 ± 0.1
p21 protein level (immunoblot, DMSO = 1.0) [8]: 1.7 ± 0.5
p27 protein level (immunoblot, DMSO = 1.0) [9]: 1.1 ± 0.2
p21 protein level (immunoblot, DMSO = 1.0) [10]: 1.1 ± 0.1
p27 protein level (immunoblot, DMSO = 1.0) [11]: 1.2 ± 0.3
p21 protein level (immunoblot, DMSO = 1.0) [19]: 1.1 ± 0.0
p27 half-life [20]: > 6 h
increase in the amount of mono and oligonucleosomes (LNCaP-S14 cells [21]): three- to fivefold
SKP2 levels (endogenous and exogenous) by immunoblotting [22]: decrease
IC50 (PC3 cells [23]; PC-3, 72 h): > 80000 nM
IC50 (PC3 cells [23]; PC-3, 96 h): > 80000 nM
IC50 (DU145 cells [24]; DU-145, 72 h): > 80000 nM
IC50 (DU145 cells [24]; DU-145, 96 h): > 80000 nM
IC50 (LNCaP-WT cells; 72 h): 40000 nM
IC50 (LNCaP-WT cells; 96 h): 2400 nM
IC50 (LNCaP-S14 cells [13]): 1090 nM
